# Reference: US9630943B2, “Tetrahydronaphthyl(thio) carboxamides” (BAYER CROPSCIENCE AG, priority 2012, dated 2017)
# Assay: Measurement of logP values by HPLC on reversed phase columns (EEC directive 79/831 Annex V.A8)
# Assay type: physicochemical
# Conditions: method [a]
row,Structure (SMILES),LogP^[a]
1,Cc1nn(C)c(C)c1C(=O)Nc1cccc2c1CCC(C)C2C (mixture of isomers) [Example 11],3.00^[a]
2,CC1CCc2c(NC(=O)c3cn(C)nc3C(F)F)cccc2C1C (mixture of isomers) [Example 12],3.37^[a]
3,CC1CCc2cccc(NC(=O)c3cn(C)nc3C(F)F)c2C1C (mixture of isomers) [Example 15],3.21^[a]
4,CCc1nc(C)sc1C(=O)Nc1cccc2c1CCC(C)C2C (mixture of isomers) [Example 36],3.87^[a]
5,CC1CCc2c(NC(=O)c3cn(C)nc3C(F)F)cccc2C1(C)C (racemic) [Example 1],3.60^[a]
6,CC1CCc2cccc(NC(=O)c3cn(C)nc3C(F)F)c2C1(C)O (racemic) [Example 14],3.96^[a]
7,Cc1nn(C)c(C)c1C(=O)Nc1cccc2c1CCC(C)(C)C2C (racemic) [Example 20],3.25^[a]
8,Cc1nn(C)c(F)c1C(=O)Nc1cccc2c1CCC(C)(C)C2C (racemic) [Example 21],3.70^[a]
9,C=C1c2cccc(NC(=O)c3c(C)nn(C)c3C)c2CCC1(C)C [Example 6],3.05^[a]
10,C=C1c2cccc(NC(=O)c3sc(C)nc3C(F)F)c2CCC1(C)C [Example 7],3.87^[a]
11,C=C1c2cccc(NC(=O)c3c(C)nn(C)c3F)c2CCC1(C)C [Example 9],3.48^[a]
12,C=C1c2cccc(NC(=O)c3cn(C)nc3C(F)F)c2CCC1(C)C [Example 10],3.48^[a]
13,Cc1nn(C)c(F)c1C(=O)Nc1cccc2c1CC(C)(C)CC2 [Example 26],3.31^[a]
14,Cn1cc(C(=O)Nc2cccc3c2CCCC3)c(C(F)(F)F)n1 [Example 28],2.92^[a]
15,Cn1cc(C(=O)Nc2cccc3c2CCC(C)(C)C3=O)c(C(F)F)n1 [Example 29],2.40^[a]
16,Cc1nn(C)c(F)c1C(=O)Nc1cccc2c1CCC(C)(C)C2=O [Example 30],2.28^[a]
17,Cc1nc(C(F)F)c(C(=O)Nc2cccc3c2CCC(C)(C)C3=O)s1 [Example 33],2.73^[a]
18,CON=C1CCCc2c(NC(=O)c3c(C)nn(C)c3C)cccc21 [Example 37],2.17^[a]
19,CCON=C1CCCc2c(NC(=O)c3cn(C)nc3C(F)F)cccc21 [Example 42],2.96^[a]
20,Cn1cc(C(=O)Nc2cccc3c2CCC(C)(C)C3)c(C(F)F)n1 [Example 43],3.35^[a]
21,CCc1nc(C)sc1C(=O)Nc1cccc2c1CCCC2=NOC [Example 47],3.02^[a]
22,CON=C1CCCc2c(NC(=O)c3sc(C)nc3C(F)F)cccc21 [Example 48],2.92^[a]
23,CC1(C)CCCc2c(NC(=O)c3ccoc3C(F)F)ccc(F)c21 [Example 51],4.06^[a]
24,CC1(C)CCCc2c(NC(=O)c3nccnc3C(F)(F)F)ccc(F)c21 [Example 52],3.96^[a]
25,CON=C1CCCc2c(NC(=O)c3ccoc3C(F)F)cccc21 [Example 53],3.25^[a]

row,Structure (SMILES),LogP^[a]
1,CON=C1CCCc2c(NC(=O)c3nccnc3I)cccc21 [Example 54],2.94^[a]
2,CON=C1CCCc2c(NC(=O)c3nccnc3C(F)(F)F)cccc21 [Example 55],3.08^[a]
3,CC1(C)CCCc2c(NC(=O)C3=C(C(F)(F)F)OCCS3)ccc(F)c21 [Example 57],4.01^[a]
4,Cc1nc(C(F)F)c(C(=O)Nc2ccc(F)c3c2CCCC3(C)C)s1 [Example 58],3.79^[a]
5,CCc1nc(C)sc1C(=O)Nc1ccc(F)c2c1CCCC2(C)C [Example 59],3.85^[a]
6,Cn1cc(C(=O)Nc2cccc3c2CCCC3(C)C)c(C(F)F)n1 [Example 60],3.39^[a]
7,Cc1nn(C)c(F)c1C(=O)Nc1cccc2c1CCCC2(C)C [Example 61],3.35^[a]
8,Cc1oc(C)c(C(=O)Nc2ccc(F)c3c2CCCC3(C)C)c1C [Example 62],4.51^[a]
9,CC1(C)CCCc2c(NC(=O)c3ccsc3I)ccc(F)c21 [Example 63],4.29^[a]
10,Cc1oc(C)c(C(=O)Nc2cccc3c2CCC(C)(C)C3)c1C [Example 65],4.59^[a]
11,CC1(C)CCc2c(cccc2NC(=O)c2ccsc2Br)C1 [Example 66],4.41^[a]
12,CC1(C)CCc2c(cccc2NC(=O)c2nccnc2C(F)(F)F)C1 [Example 68],3.99^[a]
13,CC1(C)CCc2c(cccc2NC(=O)C2=C(C(F)(F)F)OCCS2)C1 [Example 69],3.99^[a]
14,CCON=C1CCCc2c(NC(=O)c3nccnc3I)cccc21 [Example 70],3.44^[a]
15,CON=C1CCCc2c(NC(=O)c3c(C(F)(F)F)nn(C)c3F)cccc21 [Example 75],3.11^[a]
16,CON=C1CCCc2c(NC(=O)C3=C(C(F)(F)F)OCCS3)cccc21 [Example 76],3.21^[a]
17,CCON=C1CCCc2c(NC(=O)c3ccsc3Br)cccc21 [Example 77],3.87^[a]
18,CCON=C1CCCc2c(NC(=O)c3ccoc3C(F)F)cccc21 [Example 79],3.68^[a]
19,CCON=C1CCCc2c(NC(=O)c3sc(C)nc3C(F)F)cccc21 [Example 80],3.37^[a]
20,CCON=C1CCCc2c(NC(=O)c3sc(C)nc3CC)cccc21 [Example 81],3.37^[a]
21,CCc1nc(C)sc1C(=O)Nc1cccc2c1CCC(C)(C)C2 [Example 82],3.87^[a]
22,CON=C1CCCc2c(NC(=S)c3ccoc3C(F)F)cccc21 [Example 83],3.70^[a]
23,CCON=C1CCCc2c(NC(=O)c3ccsc3I)cccc21 [Example 84],3.83^[a]
24,Cn1cc(C(=S)Nc2ccc(F)c3c2CCCC3(C)C)c(C(F)F)n1 [Example 85],3.87^[a]

# The next lines start with the values.
row,LogP^[a],Structure (SMILES)
1,3.41^[a],Cc1nn(C)c(F)c1C(=O)Nc1cccc2c1CCC(C)C2C (mixture of isomers) [Example 13]
2,3.78^[a],Cc1nc(C(F)F)c(C(=O)Nc2cccc3c2CCC(C)C3C)s1 (mixture of isomers) [Example 35]
3,3.44^[a],CC1CCC(C)(C)c2cccc(NC(=O)c3cn(C)nc3C(F)F)c21 (racemic) [Example 17]
4,4.09^[a],Cc1nc(C(F)F)c(C(=O)Nc2cccc3c2CCC(C)(C)C3C)s1 (racemic) [Example 18]
5,4.19^[a],CCc1nc(C)sc1C(=O)Nc1cccc2c1CCC(C)(C)C2C (racemic) [Example 19]
6,3.68^[a],CC1c2cccc(NC(=O)c3cn(C)nc3C(F)F)c2CCC1(C)C (racemic) [Example 22]
7,3.26^[a],Cn1cc(C(=O)Nc2cccc3c2CCCC3(C)C)c(C(F)F)n1 [Example 4]
8,3.25^[a],Cn1cc(C(=O)Nc2cccc3c2CC(C)(C)CC3)c(C(F)F)n1 [Example 5]
9,3.99^[a],C=C1c2cccc(NC(=O)c3sc(C)nc3CC)c2CCC1(C)C [Example 8]
10,2.90^[a],Cc1nn(C)c(C)c1C(=O)Nc1cccc2c1CC(C)(C)CC2 [Example 23]
11,3.79^[a],CCc1nc(C)sc1C(=O)Nc1cccc2c1CC(C)(C)CC2 [Example 24]
12,3.72^[a],Cc1nc(C(F)F)c(C(=O)Nc2cccc3c2CC(C)(C)CC3)s1 [Example 25]
13,2.68^[a],Cn1cc(C(=O)Nc2cccc3c2CCCC3)c(C(F)F)n1 [Example 27]
14,2.04^[a],Cc1nn(C)c(C)c1C(=O)Nc1cccc2c1CCC(C)(C)C2=O [Example 31]
15,2.71^[a],CCc1nc(C)sc1C(=O)Nc1cccc2c1CCC(C)(C)C2=O [Example 32]
16,3.51^[a],CC1c2c(cccc2NC(=O)c2cn(C)nc2C(F)F)CCC1(C)C (stereo not shown) [Example 34]
17,2.56^[a],CON=C1CCCc2c(NC(=O)c3cn(C)nc3C(F)F)cccc21 [Example 38]

row,LogP^[a],Structure (SMILES)
1,2.47^[a],CON=C1CCCc2c(NC(=O)c3c(C)nn(C)c3F)cccc21 [Example 39]
2,2.86^[a],CCON=C1CCCc2c(NC(=O)c3c(C)nn(C)c3F)cccc21 [Example 40]
3,2.58^[a],CCON=C1CCCc2c(NC(=O)c3c(C)nn(C)c3C)cccc21 [Example 41]
4,2.94^[a],Cc1nn(C)c(C)c1C(=O)Nc1cccc2c1CCC(C)(C)C2 [Example 45]
5,3.81^[a],Cc1nc(C(F)F)c(C(=O)Nc2cccc3c2CCC(C)(C)C3)s1 [Example 46]
6,3.37^[a],CON=C1CCCc2c(NC(=O)c3ccsc3Br)cccc21 [Example 49]
7,3.92^[a],CC1(C)CCCc2c(NC(=O)c3nccnc3I)ccc(F)c21 [Example 50]
8,3.37^[a],CON=C1CCCc2c(NC(=O)c3ccsc3I)cccc21 [Example 56]
9,4.06^[a],CC1(C)CCc2c(cccc2NC(=O)c2ccoc2C(F)F)C1 [Example 64]
10,4.01^[a],CC1(C)CCc2c(cccc2NC(=O)c2nccnc2I)C1 [Example 67]
11,3.55^[a],CON=C1CCCc2c(NC(=O)c3c(C)oc(C)c3C)cccc21 [Example 71]
12,3.55^[a],CCON=C1CCCc2c(NC(=O)c3nccnc3C(F)(F)F)cccc21 [Example 72]
13,3.57^[a],CCON=C1CCCc2c(NC(=O)c3c(C(F)(F)F)nn(C)c3F)cccc21 [Example 73]
14,3.63^[a],CCON=C1CCCc2c(NC(=O)C3=C(C(F)(F)F)OCCS3)cccc21 [Example 74]
15,4.01^[a],CCON=C1CCCc2c(NC(=O)c3c(C)oc(C)c3C)cccc21 [Example 78]
16,3.99^[a],Cn1nc(C(F)(F)F)c(C(=O)Nc2cccc3c2CCC(C)(C)C3)c1F [Example 86]
17,4.34^[a],CC1(C)CCc2c(cccc2NC(=O)c2ccsc2I)C1 [Example 87]

# Same assay, conditions: pH 2.7
row,chromatographic logP,Structure (SMILES)
1,3.23,"Cc1nn(C)c(F)c1C(=O)Nc1cccc2c1CCCC2(C)C [Example 2, N-(5,5-dimethyl-5,6,7,8-tetrahydronaphthalen-1-yl)-5-fluoro-1,3-dimethyl-1H-pyrazole-4-carboxamide]"
2,2.31,"C=C1c2c(cccc2NC(=O)c2cn(C)nc2C(F)F)CCC1(C)C [Example 16, 3-(difluoromethyl)-N-(7,7-dimethyl-8-methylene-5,6,7,8-tetrahydronaphthalen-1-yl)-1-methyl-1H-pyrazole-4-carboxamide]"
